What was measured:
[1] = tested on: Bacillus megaterium QM B1551 spores; format: cell-based
[2] = tested on: CwlJ knock-out strain of Bacillus megaterium; format: cell-based
[3] = tested on: antibody-immobilised spores; format: cell-based
[4] = tested on: B. megaterium QM B1551 "receptorless" spore; format: cell-based, Bacillus megaterium

Row | SMILES | concentration of Ca-DPA at which spores germinate [1] | germination in response to exogenous Ca-DPA [2] | germination response by micrographs [3] | germination response of receptorless spores [4]
1 | O=C(O)c1cccc(C(=O)O)n1 [Ca-DPA, dipicolinic acid] | ~30 mM | does not germinate |  | 
2 | C[C@H](N)C(=O)O [L-alanine] |  |  | transition from phase bright spores to phase dark | lost the ability to respond

Reference: patent US20100021936A1, “Sensor for Spores” (priority 2007, published 2010)
